This is an account of results in US10472336B2, “Modulators of indoleamine 2,3-dioxygenase” (GlaxoSmithKline Intellectual Property (No.2) Limited, priority 2015, dated 2019).

Molecules are shown by their SMILES. Counter-ions that a name gives are not always drawn.

For this assay, the target named is indoleamine 2, 3-dioxygenase (IDO1) (Homo sapiens, UniProt P14902). Description: HeLa IDOi assay (kynurenine detection by mass spectrometry). Particulars: IFN-γ stimulated human epithelial HeLa cells, 2 days. It is filed as cell-based. The arrangement: human epithelial HeLa cells (CCL-2; host or cells: HeLa cells stimulated with human IFN-γ. How it is done:
Compounds of the present invention were tested via high-throughput cellular assays utilizing detection of kynurenine via mass spectrometry and cytotoxicity as end-points. For the mass spectrometry and cytotoxicity assays, human epithelial HeLa cells (CCL-2; ATCC®, Manassas, Va.) were stimulated with human interferon-γ (IFN-γ) (Sigma-Aldrich Corporation, St. Louis, Mo.) to induce the expression of indoleamine 2, 3-dioxygenase (IDO1). Compounds with IDO1 inhibitory properties decreased the amount of kynurenine produced by the cells via the tryptophan catabolic pathway. Cellular toxicity due to the effect of compound treatment was measured using CellTiter-Glo® reagent (CTG) (Promega Corporation, Madison, Wis.), which is based on luminescent detection of ATP, an indicator of metabolically active cells.
In preparation for the assays, test compounds were serially diluted 3-fold in DMSO from a typical top concentration of 5 mM and plated at 0.5 μL in 384-well, polystyrene, clear bottom, tissue culture treated plates with lids (Greiner Bio-One, Kremsmünster, Austria) to generate 11-point dose response curves. Low control wells (0% kynurenine or 100% cytotoxicity) contained either 0.5 μL of DMSO in the presence of unstimulated (−IFN-γ) HeLa cells for the mass spectrometry assay or 0.5 μL of DMSO in the absence of cells for the cytotoxicity assay, and high control wells (100% kynurenine or 0% cytotoxicity) contained 0.5 μL of DMSO in the presence of stimulated (+IFN-γ) HeLa cells for both the mass spectrometry and cytotoxicity assays.
Frozen stocks of HeLa cells were washed and recovered in DMEM high glucose medium with HEPES (Thermo Fisher Scientific, Inc., Waltham, Mass.) supplemented with 10% v/v certified fetal bovine serum (FBS) (Thermo Fisher Scientific, Inc., Waltham, Mass.), and 1× penicillin-streptomycin antibiotic solution (Thermo Fisher Scientific, Inc., Waltham, Mass.). The cells were diluted to 100,000 cells/mL in the supplemented DMEM medium. 50 μL of either the cell suspension, for the mass spectrometry assay, or medium alone, for the cytotoxicity assay, were added to the low control wells, on the previously prepared 384-well compound plates, resulting in 5,000 cells/well or 0 cells/well respectively. IFN-γ was added to the remaining cell suspension at a final concentration of 10 nM, and 50 μL of the stimulated cells were added to all remaining wells on the 384-well compound plates. The plates, with lids, were then placed in a 37° C., 5% CO2 humidified incubator for 2 days.
Following incubation, the 384-well plates were removed from the incubator and allowed to equilibrate to room temperature for 30 minutes. For the cytotoxicity assay, CellTiter-Glo® was prepared according to the manufacturer's instructions, and 10 μL were added to each plate well. After a twenty minute incubation at room temperature, luminescence was read on an EnVision® Multilabel Reader (PerkinElmer Inc., Waltham, Mass.). For the mass spectrometry assay, 10 μL of supernatant from each well of the compound-treated plates were added to 40 μL of acetonitrile, containing 10 μM of an internal standard for normalization, in 384-well, polypropylene, V-bottom plates (Greiner Bio-One, Kremsmünster, Austria) to extract the organic analytes. Following centrifugation at 2000 rpm for 10 minutes, 10 μL from each well of the acetonitrile extraction plates were added to 90 μL of sterile, distilled H2O in 384-well, polypropylene, V-bottom plates for analysis of kynurenine and the internal standard on the RapidFire 300 (Agilent Technologies, Santa Clara, Calif.) and 4000 QTRAP MS (SCIEX, Framingham, Mass.). MS data were integrated using Agilent Technologies' RapidFire Integrator software, and data were normalized for analysis as a ratio of kynurenine to the internal standard. […]

Sequence of indoleamine 2, 3-dioxygenase (IDO1) (P14902 whole entry): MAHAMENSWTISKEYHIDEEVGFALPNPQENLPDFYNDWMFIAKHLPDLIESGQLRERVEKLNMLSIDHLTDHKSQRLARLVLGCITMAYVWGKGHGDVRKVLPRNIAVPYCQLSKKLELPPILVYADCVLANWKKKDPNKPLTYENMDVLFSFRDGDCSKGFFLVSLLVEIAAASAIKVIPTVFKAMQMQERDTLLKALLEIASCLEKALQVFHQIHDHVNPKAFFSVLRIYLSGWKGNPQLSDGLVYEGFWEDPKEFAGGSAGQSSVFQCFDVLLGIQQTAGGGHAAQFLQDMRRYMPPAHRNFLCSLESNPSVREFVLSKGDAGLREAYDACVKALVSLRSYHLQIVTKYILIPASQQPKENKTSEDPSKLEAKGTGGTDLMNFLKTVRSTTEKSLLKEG

Broadly, the EC50 is the midpoint of the concentration-response curve. With `CC(C)CN(c1ccc(C(C)CC(=O)O)cc1Nc1nc(Br)ns1)C1CCCCC1` (stereo not shown) [Example 52, 3-(3-((3-bromo-1,2,4-thiadiazol-5-yl)amino)-4-(cyclohexyl(isobutyl)amino)phenyl)butanoic acid], the EC50 was 79.4 nM. The figure for `CC(C)CN(CC(C)C)c1ccc(C(C)CC(=O)O)cc1Nc1nc(C(C)C)co1` (stereo not shown) [Example 4, 3-(4-(diisobutylamino)-3-((4-isopropyloxazol-2-yl)amino)phenyl)butanoic acid] is 631 nM; for `CC(C)CN(c1ccc(C(C)CC(=O)O)cc1Nc1nc2ccccc2[nH]1)C1CCCCC1` (stereo not shown) [Example 6, 3-(3-((1H-benzo[d]imidazol-2-yl)amino)-4-(cyclohexyl(isobutyl)amino)phenyl)butanoic acid] it is 2.51 nM. Then `CC(C)CN(CC(C)C)c1ccc(C(C)CC(=O)O)cc1Nc1nnc(C2CC2)s1` (stereo not shown) [Example 26, 3-(3-((5-cyclopropyl-1,3,4-thiadiazol-2-yl)amino)-4-(diisobutylamino)phenyl)butanoic acid, 2,2,2-trifluoro-acetic acid salt], with 5.01 nM.

Consider `CC(C)CN(c1ccc(C(C)CC(=O)O)cc1NC1=N[C@@H](C)CS1)C1CCCCC1` (stereo partly drawn) [Example 73, 3-(4-(cyclohexyl(isobutyl)amino)-3-(((S)-4-methyl-4,5-dihydrothiazol-2-yl)amino)phenyl) butanoic acid], for which a half-maximal effect (EC50) was put at 398 nM. This EC50 is about 79-fold higher than that of the compound before. The figure for `CC(C)CN(c1ccc(C(C)CC(=O)O)cc1Nc1nc(C(F)(F)F)ns1)C1CCCCC1` (stereo not shown) [Example 33, 3-(4-(cyclohexyl(isobutyl)amino)-3-((3-(trifluoromethyl)-1,2,4-thiadiazol-5-yl)amino)phenyl)butanoic acid] is 2.51 nM; for `CC(C)CN(CC(C)C)c1ccc(C(C)CC(=O)O)cc1Nc1nc(-c2ccccc2)co1` (stereo not shown) [Example 3, 3-(4-(diisobutylamino)-3-((4-phenyloxazol-2-yl)amino)phenyl)butanoic acid] it is 501 nM. Regarding `CCCCc1cc(C(C)CC(=O)O)cc(Nc2nc(Cl)ns2)c1OCCC` (stereo not shown) [Example 36, 3-(3-butyl-5-((3-chloro-1,2,4-thiadiazol-5-yl)amino)-4-propoxyphenyl)butanoic acid, 2,2,2-trifluoroacetic acid salt], the EC50 was 158 nM. Against the preceding compound, the EC50 is about 3.2-fold lower. The figure for `CC(C)CN(CC(C)C)c1ccc(C(C)CC(=O)O)cc1Nc1nc(Br)ns1` (stereo not shown) [Example 32, 3-(3-((3-bromo-1,2,4-thiadiazol-5-yl)amino)-4-(diisobutylamino)phenyl)butanoic acid] is 200 nM; for `CC(C)CN(c1ccc(C(C)CC(=O)O)cc1Nc1nc2ccccc2o1)C1CCCCC1` (stereo not shown) [Example 8, 3-(3-(benzo[d]oxazol-2-ylamino)-4-(cyclohexyl(isobutyl)amino)phenyl)butanoic acid] it is 31.6 nM; for `CC(C)CN(c1ccc(C(C)CC(=O)O)cc1Nc1nc2ccccc2s1)C1CCCCC1` (stereo not shown) [Example 9, 3-(3-(benzo[d]thiazol-2-ylamino)-4-(cyclohexyl(isobutyl)amino)phenyl)butanoic acid] it is 3.98 nM.

`Cc1sc(Nc2cc(C(C)CC(=O)O)ccc2N(CC(C)C)CC(C)C)nc1C(F)(F)F` (stereo not shown) [Example 45, 3-(4-(diisobutylamino)-3-((5-methyl-4-(trifluoromethyl)thiazol-2-yl)amino)phenyl)butanoic acid] gave an EC50 of 79.4 nM. The figure for `CC(C)CN(CC(C)C)c1ccc(C(C)CC(=O)O)cc1Nc1nc(C(F)(F)F)cs1` (stereo not shown) [Example 44, 3-(4-(diisobutylamino)-3-((4-(trifluoromethyl)thiazol-2-yl)amino)phenyl)butanoic acid] is 20 nM; for `CC(C)CN(c1ccc(C(C)CC(=O)O)cc1Nc1ccnc(Cl)n1)C1CCCCC1` (stereo not shown) [Example 13, 3-(3-((2-chloropyrimidin-4-yl)amino)-4-(cyclohexyl(isobutyl)amino)phenyl)butanoic acid] it is 12.6 nM. Compound `CC(C)CN(c1ccc(C(C)CC(=O)O)cc1Nc1nc(Cl)ns1)C1CCCCC1` (stereo not shown) [Example 7, 3-(3-((3-chloro-1,2,4-thiadiazol-5-yl)amino)-4-(cyclohexyl(isobutyl)amino)phenyl)butanoic acid] showed a concentration for a half-maximal effect (EC50) of 5.01 nM.

`CC(C)CN(c1ccc(C(C)CC(=O)O)cc1NC1=N[C@H](C)CS1)C1CCCCC1` (stereo partly drawn) [Example 74, 3-(4-(Cyclohexyl(isobutyl)amino)-3-(((R)-4-methyl-4,5-dihydrothiazol-2-yl)amino)phenyl)butanoic Acid] showed an EC50 of 398 nM. The figure for `CC(C)CN(CC(C)C)c1ccc(C(C)CC(=O)O)cc1Nc1cnc(-c2ccccc2)s1` (stereo not shown) [Example 16, 3-(4-(diisobutylamino)-3-((2-phenylthiazol-5-yl)amino)phenyl)butanoic acid] is 126 nM; for `Cc1nnc(Nc2cc(C(C)CC(=O)O)ccc2N(CC(C)C)CC(C)C)s1` (stereo not shown) [Example 28, 3-(4-(diisobutylamino)-3-((5-methyl-1,3,4-thiadiazol-2-yl)amino)phenyl)butanoic acid] it is 31.6 nM; for `Cc1nsc(Nc2cc(C(C)CC(=O)O)ccc2N(CC(C)C)CC(C)C)n1` (stereo not shown) [Example 31, 3-(4-(diisobutylamino)-3-((3-methyl-1,2,4-thiadiazol-5-yl)amino)phenyl)butanoic acid] it is 79.4 nM. The figure for `COc1nccc(Nc2cc(C(C)CC(=O)O)ccc2N(CC(C)C)C2CCCCC2)n1` (stereo not shown) [Example 14, 3-(4-(cyclohexyl(isobutyl)amino)-3-((2-methoxypyrimidin-4-yl)amino)phenyl)butanoic acid] is 39.8 nM.

For `Cc1cnc(Nc2cc(C(C)CC(=O)O)ccc2N(CC(C)C)CC(C)C)s1` (stereo not shown) [Example 15, 3-(4-(diisobutylamino)-3-((5-methylthiazol-2-yl)amino)phenyl)butanoic acid], the concentration giving a half-maximal response (EC50) was 158 nM. The figure for `CC(C)CN(CC(C)C)c1ccc(C(C)CC(=O)O)cc1Nc1nc2ccccc2[nH]1` (stereo not shown) [Example 2, 3-(3-((1H-benzo[d]imidazol-2-yl)amino)-4-(diisobutylamino)phenyl)butanoic acid] is 3.98 nM; for `CC(C)CN(CC(C)C)c1ccc(C(C)CC(=O)O)cc1Nc1nc(C(C)C)cs1` (stereo not shown) [Example 46, 3-(4-(diisobutylamino)-3-((4-isopropylthiazol-2-yl)amino)phenyl)butanoic acid] it is 126 nM; for `CC(C)CN(c1ccc(C(C)CC(=O)O)cc1NC1=N[C@H](c2ccccc2)CO1)C1CCCCC1` (stereo partly drawn) [Example 72, 3-(4-(Cyclohexyl(isobutyl)amino)-3-(((R)-4-phenyl-4,5-dihydrooxazol-2-yl)amino)phenyl)butanoic Acid] it is 316 nM. Compound `CC(C)CN(c1ccc(C(C)CC(=O)O)cc1Nc1nc(-c2ccccc2)co1)C1CCCCC1` (stereo not shown) [Example 10, 3-(4-(cyclohexyl(isobutyl)amino)-3-((4-phenyloxazol-2-yl)amino)phenyl)butanoic acid] gave an EC50 of 100 nM.

In turn, `Cc1nc(Nc2cc(C(C)CC(=O)O)ccc2N(CC(C)C)CC(C)C)sc1C` (stereo not shown) [Example 43, 3-(4-(diisobutylamino)-3-((4,5-dimethylthiazol-2-yl)amino)phenyl)butanoic acid] showed an EC50 of 316 nM. Against the preceding compound, the EC50 is about 3.2-fold higher. Then `CCOC(=O)c1ncc(Nc2cc(C(C)CC(=O)O)ccc2N(CC(C)C)CC(C)C)s1` (stereo not shown) [Example 17, 3-(4-(diisobutylamino)-3-((2-(ethoxycarbonyl)thiazol-5-yl)amino)phenyl)butanoic acid], with 25.1 nM. Consider `CC(C)CN(CC(C)C)c1ccc(C(C)CC(=O)O)cc1Nc1nc(C(F)(F)F)co1` (stereo not shown) [Example 5, 3-(4-(diisobutylamino)-3-((4-(trifluoromethyl)oxazol-2-yl)amino)phenyl)butanoic acid], for which it took 20 nM to reach a half-maximal effect (EC50).
